System: EGFR-mutant (Ex19del/L858R) advanced NSCLC
Experiment: MARIPOSA Phase 3, PFS in high-risk subgroups
Format: in vivo, human
Experimental: Key Eligibility Criteria: locally advanced or metastatic NSCLC, treatment-naïve for advanced disease, documented EGFR Ex19del or L858R, and ECOG PS 0 or 1. […] High-risk subgroups analyzed: liver metastases, brain metastases, TP53 co-mutation, detectable EGFRm ctDNAd at baseline, and without EGFRm ctDNAd clearance at C3D1 (Week 9) (FIG. 16). Detection of ctDNA and co-mutations were analyzed by next-generation sequencing (NGS) of blood at baseline. Detection and clearance of Ex19del and L858R ctDNA in blood were analyzed with ddPCR at baseline and C3D1.

Structure (SMILES): C=CC(=O)Nc1cc(Nc2nccc(-c3cn(C)c4ccccc34)n2)c(OC)cc1N(C)CCN(C)C [Osimertinib]
- Median PFS (detectable baseline ctDNA, Biodesix ddPCR): 14.8 months
- Median PFS (wild-type TP53 at baseline): 19.9 months
- Median PFS (with TP53 co-mutations at baseline): 12.9 months
- Median PFS (with brain metastases at baseline): 13.0 months
- Median PFS (with cleared ctDNA at C3D1, Biodesix ddPCR): 16.5 months
- Median PFS (with liver metastases at baseline): 11.0 months
- Median PFS (without brain metastases at baseline): 19.9 months
- Median PFS (without cleared ctDNA at C3D1, Biodesix ddPCR): 9.1 months
- Median PFS (without detectable baseline ctDNA, Biodesix ddPCR): 21.9 months
- Median PFS (without liver metastases at baseline): 18.3 months
